This note sets out measurements from BindingDB's records for doi:10.1124/jpet.102.047118 (Juvantia Pharma, 2003).

For test [1], the target named is T1, Prolactin-releasing peptide receptor (Homo sapiens, UniProt P49683).
T1 sequence (P49683 whole entry): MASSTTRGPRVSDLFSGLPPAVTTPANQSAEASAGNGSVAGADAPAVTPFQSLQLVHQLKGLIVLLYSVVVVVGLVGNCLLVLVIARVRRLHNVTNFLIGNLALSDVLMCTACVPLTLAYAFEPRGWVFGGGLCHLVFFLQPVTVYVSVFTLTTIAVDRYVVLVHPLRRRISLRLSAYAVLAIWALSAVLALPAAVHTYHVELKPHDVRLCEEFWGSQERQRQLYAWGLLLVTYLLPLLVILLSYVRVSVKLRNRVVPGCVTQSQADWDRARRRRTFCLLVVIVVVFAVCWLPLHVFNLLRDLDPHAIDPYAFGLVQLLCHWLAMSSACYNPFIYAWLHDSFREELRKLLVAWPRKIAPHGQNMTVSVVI

For test [2], the target named is Neuropeptide FF receptor 2 (Homo sapiens, UniProt Q9Y5X5).
Sequence of Neuropeptide FF receptor 2 (Q9Y5X5 whole entry): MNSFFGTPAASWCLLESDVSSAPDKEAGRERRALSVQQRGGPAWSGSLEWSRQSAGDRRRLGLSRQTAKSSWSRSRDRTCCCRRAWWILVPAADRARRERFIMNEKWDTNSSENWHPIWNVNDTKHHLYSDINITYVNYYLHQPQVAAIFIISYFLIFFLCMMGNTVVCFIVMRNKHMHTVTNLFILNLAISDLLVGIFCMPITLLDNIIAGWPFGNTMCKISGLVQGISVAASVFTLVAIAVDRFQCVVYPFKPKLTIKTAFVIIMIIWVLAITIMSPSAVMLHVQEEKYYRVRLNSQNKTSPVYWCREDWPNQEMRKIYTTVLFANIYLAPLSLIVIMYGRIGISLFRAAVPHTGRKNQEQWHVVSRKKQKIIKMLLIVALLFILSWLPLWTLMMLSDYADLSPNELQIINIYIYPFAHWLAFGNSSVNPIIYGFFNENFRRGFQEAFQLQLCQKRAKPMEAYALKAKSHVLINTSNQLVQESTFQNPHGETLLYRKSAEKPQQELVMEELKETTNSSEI

“And” between values parts separate entries of the source, which are not always exact repeats. Identical values can stand only once. Peptide text beside a SMILES is read from it.

Broadly, the Ki is a measure of affinity in units of concentration, obtained from inhibition or displacement. `N=C(N)NCCCC(NC(=O)C(c1ccccc1)c1ccccc1)C(=O)NCc1ccc(O)cc1` (configuration not stated) [NSC_5311023] showed an inhibition constant Ki of 390 nM. The same compound displayed a Ki in test [1] of over 10000 nM. In test [2], this compound displayed a Ki of 640 nM.

In test [2], `CC(C)C[C@H](NC(=O)[C@H](N)Cc1ccc(O)cc1)C(=O)N(C)[C@@H](Cc1ccccc1)C(=O)N[C@@H](CCC(N)=O)C(=O)N1CCC[C@H]1C(=O)N[C@@H](CCC(N)=O)C(=O)N[C@@H](CCCN=C(N)N)C(=O)N[C@@H](Cc1ccccc1)C(N)=O` [CAS_132709] (HELM PEPTIDE1{[dY].L.[meF].Q.P.Q.R.F.[am]}$$$$V2.0) showed a Ki of 5.3 nM.

For the compound `CC(C)C[C@H](NC(=O)[C@@H](N)Cc1ccccc1)C(=O)N[C@@H](Cc1ccccc1)C(=O)N[C@@H](CCC(N)=O)C(=O)N1CCC[C@H]1C(=O)N[C@@H](CCC(N)=O)C(=O)N[C@@H](CCCN=C(N)N)C(=O)N[C@@H](Cc1ccccc1)C(=O)O` [NSC_0], affinity was put at a Ki of 2400 nM.

Regarding `CC(C)C[C@H](NC(=O)[C@@H](N)Cc1ccccc1)C(=O)N[C@@H](Cc1ccccc1)C(=O)N[C@@H](CCC(N)=O)C(=O)N1CCC[C@H]1C(=O)N[C@@H](CCC(N)=O)C(=O)N[C@@H](CCCN=C(N)N)C(=O)N[C@@H](Cc1ccccc1)C(N)=O` [CAS_235433-36-0], the inhibition constant Ki was 5.2 nM and 5.9 nM.

The compound `CC[C@H](C)[C@H](NC(=O)CNC(=O)[C@H](CCCNC(=N)N)NC(=O)CNC(=O)[C@@H](NC(=O)[C@H](Cc1ccc(O)cc1)NC(=O)[C@H](Cc1c[nH]c2ccccc12)NC(=O)[C@H](C)NC(=O)[C@@H]1CCCN1C(=O)[C@H](CC(N)=O)NC(=O)[C@@H](NC(=O)[C@H](CC(=O)O)NC(=O)[C@@H]1CCCN1C(=O)[C@@H](N)[C@@H](C)O)[C@@H](C)CC)[C@@H](C)O)C(=O)N[C@@H](CCCNC(=N)N)C(=O)N1CCC[C@H]1C(=O)N[C@H](C(=O)NCC(=O)N[C@@H](CCCNC(=N)N)C(=O)N[C@@H](Cc1ccccc1)C(N)=O)C(C)C` [CAS_222988-10-5] (H-TPDINPAWYTGRGIRPVGRF-NH2) gave a Ki of 2.3 nM. The affinity in test [1] corresponds to a Ki of 1 nM. Affinity in test [2] was put at a Ki of 23 nM.

On to `CC(C)C[C@H](NC(=O)[C@H](CC(N)=O)NC(=O)[C@@H]1CCCN1C(=O)[C@@H](N)C(C)C)C(=O)N1CCC[C@H]1C(=O)N[C@@H](CCC(N)=O)C(=O)N[C@@H](CCCNC(=N)N)C(=O)N[C@@H](Cc1ccccc1)C(N)=O` [RFamide-related peptide 3], for which affinity was put at a Ki of 19 nM. For the same compound, the Ki in test [1] was over 10000 nM. For the same compound, in test [2], affinity was put at a Ki of 55 nM.

With `CC[C@H](C)[C@H](NC(=O)CN)C(=O)N[C@@H](CCCN=C(N)N)C(=O)N1CCC[C@H]1C(=O)N[C@H](C(=O)NCC(=O)N[C@@H](CCCN=C(N)N)C(=O)N[C@@H](Cc1ccccc1)C(N)=O)C(C)C` [NSC_0] (H-GIRPVGRF-NH2), the inhibition constant (Ki) in test [1] amounted to 47 nM; in test [2], 32 nM.

`CSCC[C@H](N)C(=O)N1CCC[C@H]1C(=O)N[C@@H](Cc1cnc[nH]1)C(=O)N[C@@H](CO)C(=O)N[C@@H](Cc1ccccc1)C(=O)N[C@@H](C)C(=O)N[C@@H](CC(N)=O)C(=O)N[C@@H](CC(C)C)C(=O)N1CCC[C@H]1C(=O)N[C@@H](CC(C)C)C(=O)N[C@@H](CCCNC(=N)N)C(=O)N[C@@H](Cc1ccccc1)C(N)=O` [RFamide-related peptide 1] (H-MPHSFANLPLRF-NH2) returned a Ki of 15 nM. Moreover, in test [1], the Ki is over 10000 nM. This compound returned an inhibition constant Ki in test [2] of 15 nM.
